Experiments:
[1] = tested on: EV-A71; assay: Cytopathic effect (CPE) inhibition assay in RD cells; format: cell-based, Human enterovirus A71; details: Enterovirus A, EVA71, RD, read-out: EC50, compound concentration required to achieve 50% protection from virus-induced cytopathogenicity
[2] = tested on: CVB1; assay: Antiviral activity against CVB1 in BGMK cells (RT-qPCR, TCID50); format: cell-based, coxsackievirus B1; details: 10 µM, 0.1 MOI, 24 h
Description: (§1) Detection of cellular mRNA expression and viral load was performed as described previously ([24]). In brief, the infected or mock-infected cells were lysed and applied to total RNA extraction by using the MiniBEST Universal RNA Extraction Kit (TaKaRa, Code No.9767). Viral RNA in the supernatant was extracted with the MiniBEST Viral RNA Extraction Kit (TaKaRa, Code No.9766). Reverse transcription was performed using the PrimeScript RT reagent Kit (TaKaRa, Code No.PR037A) with an oligo (dT) primer. The resultant cDNAs were used for qPCR assay with the Light Cycler 480 SYBR Green I Master Mix (Roche) to measure the mRNA expression level of cellular genes or viral load in supernatants. The relative viral gene copy was determined by RT-qPCR, using GAPDH as an internal reference.
(§2) The viral titer in the indicated samples was determined by TCID50 assay as described previously ([25]). Briefly, serially diluted samples from 10^−1 to 10^−8 in DMEM were inoculated to RD cells, BGMK cells, or MRC-5 in 96‐well plates. The cells were then incubated for 2 to 3 days at 37°C. TCID50 was calculated by counting the wells with cytopathic effect in infected cells using the Reed–Muench method.
(§3) The viral gene copy in the cell lysate is normalized with the transcript of GAPDH and presented. Viral titers were also detected by TCID50 assay. […] All experiments were independently repeated thrice.

[3] = tested on: HRV-A; assay: Antiviral activity against HRV-A in MRC-5 cells (RT-qPCR, TCID50); format: cell-based, human rhinovirus A; details: 10 µM, 0.1 MOI, 24 h
Description: as §1, §2, §3

[4] = tested on: CVA10; assay: Antiviral activity against CVA10 in RD cells (RT-qPCR, TCID50); format: cell-based, coxsackievirus A10; details: 10 µM, 0.1 MOI, 24 h
Description: as §1, §2, §3

[5] = tested on: EV-A71; assay: Time-of-drug addition assay in RD cells; format: cell-based, Human enterovirus A71; details: MOI 1, read at 12 hpi
Description: RD cells were seeded into 24-well plates or eight-well chamber slides (Millicell) 1 day before infection with EV-A71 at an MOI of 1. After adsorption for 2 h, the cells were washed with PBS once to remove the unbound virus and maintained in DMEM supplemented with 2% FBS. […] At 12 hpi, the virus from the culture supernatant were collected, and the relative viral gene copy was detected by RT-qPCR. Meanwhile, the virus titer was assessed using TCID50 assay as described before. To analyze VP1 expression, the cells in the eight-well chamber slides were fixed and then monitored using immunofluorescence staining.
(A) Graphical scheme illustrating the experimental design. (B) RT-qPCR measured the amount of viral RNA released into culture supernatant. (C) Viral titer was determined in TCID50 assays. […] Nuclei are counterstained with DAPI (blue). Scale bar, 50 µm.

[6] = tested on: EV-D70; assay: Antiviral activity against EV-D70 in RD cells (RT-qPCR, TCID50); format: cell-based, enterovirus D70; details: 10 µM, 0.1 MOI, 24 h
Description: as §1, §2, §3

[7] = tested on: Akt phosphorylation; assay: Western blot of phosphorylated Akt and total Akt in RD cells; format: cell-based
Description: Western blot analysis was performed as described previously ([26]). In brief, the indicated cell samples were lysed in RIPA buffer supplemented with protease inhibitors (Thermo Fisher Scientific, 78430). The cell lysates were then separated in 10% SDS-PAGE and transferred to a 0.45-µm nitrocellulose membrane. After blocking, the membrane was incubated with an against VP1 antibody (GeneTex, GTX132339), VEGFR1 antibody (Abcam, ab32152), VEGFR2 antibody (Abcam, ab134191), phosphorylated VEGFR2 antibody (Tyr951) (CST 4991), VEGFR3 antibody (Beyotime, AF6918), Akt antibody (CST 4685), phosphorylated Akt antibody (CST 4060), or GAPDH antibody (GeneTex, GTX627408) diluted 1:5,000 in primary antibody dilution buffer overnight at 4°C, followed by corresponding secondary staining. The blots were visualized by western horseradish peroxidase substrate and imaged with Gel Doc XR+.
Fig. S8. Viral reduction in RD cells with Akt inhibitor treatment. […] Significant inhibition of EV-A71 infection was found for both cell lysate (left) and supernatant (middle) using RT-qPCR analysis. The results represent the viral load in the cells treated with MK-2206 relative to that in DMSO-treated cells. Viral titer was also determined for inhibitor-treated samples in TCID50 assays (right). […] (C) The levels of VP1, phosphorylated Akt and total Akt protein were measured for samples treated with DMSO or MK-2206 using western blotting.
Fig. S9. […] (A) RD cells were infected with EV-A71 at an MOI of 1, and cell lysates were collected at the indicated times. Western blotting assays were then performed to assess the levels of phosphorylated Akt and total Akt. (B)The plasmids pVEGFR2 or pEmpty vector were transfected into RD cells. At the indicated times post-transfection, cells were harvested to detect the expression levels of phosphorylated Akt and total Akt by western blotting. […] Western blotting assays were then performed to assess the levels of phosphorylated Akt and total Akt. […] At 1 hpi, cells were harvested to detect the expression levels of phosphorylated Akt and total Akt by western blotting. […]

[8] = tested on: VEGFR2; parameters: method as in PMID 17620431; details: cited from earlier work
[9] = tested on: IL-6, IL-8, TNF-α mRNA expression; assay: EV-A71-induced pro-inflammatory cytokine mRNA expression in Huh7 and THP-1 cells; format: cell-based; details: 10 µM, Huh7 (MOI 2) and THP-1 (MOI 5) cells, 12 hpi
[10] = tested on: EV-A71; assay: EV-A71 inactivation (virucidal) assay; parameters: species or system Human enterovirus A71; details: 10 µM, 2 h at 25°C, TCID50
Description: Fig. S5. […] (A) EV-A71 inactivation assay. […] (B) EV-A71 attachment assay. […] After 2 hpi, the infectious inoculum was removed and cells were washed again. The intracellular viral RNA load was then determined using RT-qPCR analysis. (C) EV-A71 entry assay.

## Cc1ccc(Nc2nccc(N(C)c3ccc4c(C)n(C)nc4c3)n2)cc1S(N)(=O)=O [Pazopanib]
[1]
  EC50: 890 ± 20 nM
[2]
  decrease in viral load and viral titer: over 2 logs
[3]
  HRV-A replication (viral loads in cell lysate and supernatant): slight but significant inhibition
[4]
  viral load and viral titer of CVA10 in cell lysates and supernatants: significantly reduced
[5]; 10 µM added at 6 to 10 hpi
  inhibitory effect, late treatment: no significant inhibitory effect
[5]; 10 µM added at −2 h, 0 h, 2 h, 4 h
  viral load and viral titer of progeny virions in culture medium, early treatment: significantly reduced
[6]
  decrease in viral load and viral titer: over 2 logs
[7]; 10 µM pretreatment
  Akt phosphorylation in mock-infected cells: significantly attenuated Akt phosphorylation
[7]; 10 µM, MOI 1, 1 hpi
  EV-A71-stimulated Akt phosphorylation: inhibited
[8]
  IC50: […]
[9]
  EV-A71-induced pro-inflammatory cytokine activation: significantly suppressed
[10]
  virucidal effect (EV-A71 virus titers vs DMSO): no virucidal effect

Reference: publication PMC11542593, “Vascular endothelial growth factor receptor 2 as a potential host target for the inhibition of enterovirus replication” (Journal of Virology, 2024)
